Here are results for 20 molecules from patent US7238830B2, “N-alkylaspartyl dipeptide ester compounds” (Ajinomoto Co., Inc., priority 1998, dated 2007).

Where two headings read alike, the source gives them in different places. Peptide text beside a SMILES is read from it.

In general, half-life refers to the time needed for the level to fall by half in the phase considered. Low values mean rapid decline, high ones slow decline.

For data set [1] the following is noted: reported in WO 94/11391, compared to 2%, 5% and 10% sucrose solutions, cited from earlier work.
A short description of data set [2]: Sensory evaluation of sweetness (sweetening potency) relative to sucrose. The note with it: for Sweetness (sweetening potency): sensory evaluation; for sweetness potency: values compared to sweetening potency of a 4% aqueous solution of sucrose. The text has this:
For example, the sweetness of N-[N-[3-(3-hydroxy-4-methoxyphenyl)-3-methylbutyl]-L-α-aspartyl]-L-phenylalanine 1-methyl ester was approximately 70000 times that of sugar, the sweetness of N-[N-[3-(3-methyl-4 hydroxyphenyl)-3-methylbutyl]-L-α-aspartyl]-L-phenylalanine 1-methyl ester was approximately 70000 times that of sugar, the sweetness of N-[N-[3-(3-hydroxy-4-methylphenyl)-3-methylbutyl]-L-α- aspartyl]-L-phenylalanine 1-methyl ester was approximately 60000 times that of sugar, and the sweetness of N-[N-((RS)-3-(3 hydroxy-4-methoxyphenyl) butyl]-L-α-aspartyl]-L-phenylalanine 1-methyl ester was approximately 50000 times that of sugar. […] Sensory evaluations can be performed as described in, for example, B. T. Carr, S. D. Pecore, K. M. Gibes and G. E. Dubois, “Sensory Methods for Sweetner Evaluation” in Flavor Measurement, edited by C. T. Ho and C. H. Manley, Marcel Decker, Inc. (1992).

The nature of the next data set: physchem. The class given is physicochemical.

Consider `COC(=O)[C@H](Cc1ccccc1)NC(=O)[C@H](CC(=O)O)NC(C)CCc1ccc(O)c(OC)c1` (mixture of isomers) [N-[N-[3-(3-methoxy-4-hydroxyphenyl)(RS)-1-methylpropyl]-L-α-aspartyl]-L-phenylalanine 1-methylester], for which, in data set [1], the sweetening potency is 500 times that of sucrose.
`COC(=O)[C@H](Cc1ccccc1)NC(=O)[C@H](CC(=O)O)NCCC(C)(C)C` [N-[N-(3,3-dimethylbutyl)-L-α-aspartyl]-L-phenylalanine 1-methyl ester, reference compound]: the figures for the sweetening potency in data set [1] and in data set [1] (listed as N-[N-(3,3-dimethylbutyl)-L-α-aspartyl]-L-phenylalanine 1-methylester) were 10,000 times that of sucrose and 10000 times that of sucrose, respectively.
Consider `COC(=O)[C@H](Cc1ccccc1)NC(=O)[C@H](CC(=O)O)NCCC(C)(C)c1ccc(O)cc1` [Compound 8, N-[N-[3-(4-hydroxyphenyl)-3-methylbutyl]-L-α-aspartyl]-L-phenylalanine 1 methyl ester], for which, in data set [2], the “Sweetness (sweetening potency)” value was 25000 times the sweetness of sugar and the sweetness potency was 25000. Moreover, the “half life in a buffer” value in the data set “physchem” worked out at 43.6 h.
For the molecule `COC(=O)[C@H](Cc1ccccc1)NC(=O)[C@H](CC(=O)O)NCCCc1ccccc1` [N-[N-(3-phenylpropyl)-L-(α-aspartyl]-L-phenylalanine 1-methyl ester], the sweetening potency in data set [1] is recorded as 1500 times that of sucrose.
In the case of `COC(=O)[C@H](Cc1ccccc1)NC(=O)[C@H](CC(=O)O)NCCC(C)(C)c1ccc(O)c(OC)c1` [Compound 9, N-[N-[3-(3-methoxy-4-hydroxyphenyl)-3-methylbutyl]-L-α-aspartyl)-L-phenylalanine 1 methyl ester], in data set [2], the “Sweetness (sweetening potency)” value is 40000 times the sweetness of sugar and the sweetness potency worked out at 40000. The “half life in a buffer” value in “physchem” worked out at 34.4 h.
For the molecule `COC(=O)[C@H](Cc1ccccc1)NC(=O)[C@@H](N)CC(=O)O` [aspartame, reference compound] (H-Asp-Phe-OMe), the half-life in the data set “physchem” (buffer, pH 3) was 23.5 h.
`COC(=O)[C@H](Cc1ccccc1)NC(=O)[C@H](CC(=O)O)NCCC(C)(C)c1ccc(O)c(O)c1` [Compound 23, N-[N-[3-(3,4-dihydroxyphenyl)-3-mehylbutyl]-L-α-aspartyl]-L-phenylalanine 1-methyl ester]: in data set [2], the “Sweetness (sweetening potency)” value is given as 50000 times the sweetness of sugar and the sweetness potency is 50000.
As for `COC(=O)[C@H](Cc1ccccc1)NC(=O)[C@H](CC(=O)O)NCCC(C)(C)c1ccc(OC)c(C)c1` [Compound 17, N-[N-[3-(3-methyl-4-methoxyphenyl)-3-methylbutyl]-L-α-aspartyl]-L-phenylalanine 1-methyl ester], in data set [2], the “Sweetness (sweetening potency)” value was 30000 times the sweetness of sugar and the sweetness potency is recorded as 30000.
On to `CCOC(=O)[C@H](Cc1ccccc1)NC(=O)[C@H](CC(=O)O)NCCC(C)(C)c1ccc(OC)c(O)c1` [Compound 21, N-[N-[3-(3-hydroxy-4-methoxyphenyl)-3-methylbutyl]-L-α-aspartyl]-L-phenylalanine 1-ethyl ester], for which, in data set [2], the “Sweetness (sweetening potency)” value is recorded as 15000 times the sweetness of sugar and the sweetness potency came to 15000.
For the molecule `COC(=O)[C@H](Cc1ccccc1)NC(=O)[C@H](CC(=O)O)NCCC(C)(C)c1ccc(OC)c(O)c1` [Compound 10, N-[N-[3-(3-hydroxy-4-methoxyphenyl)-3-methylbutyl]-L-α-aspartyl]-L-phenylalanine 1-methyl ester], the “Sweetness (sweetening potency)” value in data set [2] (listed as Example 1) is reported as 70000 times the sweetness of sugar. This molecule also registered a sweetness potency in data set [2] of 70000. Besides, the “half life in a buffer” value in the data set “physchem” turned out to be 44.5 h.
For the molecule `COC(=O)[C@H](Cc1ccccc1)NC(=O)[C@H](CC(=O)O)NCCC(C)c1cccc(O)c1` (mixture of isomers) [Compound 2, N-[N-[(RS)-3-(3-hydroxyphenyl)butyl]-L-α-aspartyl]-L-phenylalanine 1 methyl ester], in data set [2], the “Sweetness (sweetening potency)” value is 12000 times the sweetness of sugar and the sweetness potency is listed as 12000.
On the same counts, the results for `COC(=O)[C@H](Cc1ccccc1)NC(=O)[C@H](CC(=O)O)NCCC(C)c1ccc(O)c(C)c1` (mixture of isomers) [Compound 11, N-[N-[(RS)-3-(3-methyl-4-hydroxyphenyl)butyl]-L-α-aspartyl]-L-phenylalanine 1-methyl ester] are 50000 times the sweetness of sugar and 50000.
As to `COC(=O)[C@H](Cc1ccccc1)NC(=O)[C@H](CC(=O)O)NCCC(C)(C)c1ccccc1O` [Compound 13, N-[N-[3-(2-hydroxyphenyl)-3-methylbutyl]-L-α-aspartyl]-L-phenylalanine 1-methyl ester], in data set [2], the “Sweetness (sweetening potency)” value is recorded as 8000 times the sweetness of sugar and the sweetness potency is recorded as 8000.
As to `COC(=O)[C@H](Cc1ccc(O)cc1)NC(=O)[C@H](CC(=O)O)NCCC(C)(C)C` [N-[N-(3,3-dimethylbutyl)-L-α-aspartyl]-L-tyrosine 1-methyl ester], the sweetening potency in data set [1] is on record as 4,000 times that of sucrose; in data set [1] (listed as N-[N-(3,3-dimethylbutyl)-L-α-aspartyl]-L-tyrosine 1-methylester), 4000 times that of sucrose.
Take `COC(=O)[C@H](Cc1ccccc1)NC(=O)[C@H](CC(=O)O)NCCC(C)c1ccc(O)c(OC)c1` (mixture of isomers) [Compound 3, N-[N-[(RS)-3-(3-methoxy-4-hydroxyphenyl)butyl]-L-α-aspartyl]-L-phenylalanine 1-methyl ester]: in data set [2], the “Sweetness (sweetening potency)” value is 30000 times the sweetness of sugar and the sweetness potency stood at 30000.
In the case of `COC(=O)[C@H](Cc1ccccc1)NC(=O)[C@H](CC(=O)O)NCCC(C)(C)c1ccc(OC)cc1` [Compound 7, N-[N-[3-(4-methoxyphenyl)-3-methylbutyl]-L-α-aspartyl)-L-phenylalanine 1-methyl ester], in data set [2], the “Sweetness (sweetening potency)” value is 25000 times the sweetness of sugar and the sweetness potency is 25000.
Take `COC(=O)[C@H](Cc1ccccc1)NC(=O)[C@H](CC(=O)O)NCCC(C)(C)c1ccc(C)c(O)c1` [Compound 19, N-[N-[3-(3-hydroxy-4-methylphenyl)-3-methylbutyl]-L-α-aspartyl]-L-phenylalanine 1-methyl ester]: the “Sweetness (sweetening potency)” value in data set [2] is on record as “approximately 60000 times the sweetness of sugar”; in data set [2] (listed as Example 22), 60000 times the sweetness of sugar. In data set [2], this molecule returned a sweetness potency of 60000.
Consider `COC(=O)[C@H](CC1CCCCC1)NC(=O)[C@H](CC(=O)O)NCCC(C)c1ccc(OC)c(O)c1` (mixture of isomers) [Compound 6], for which, in data set [2], the “Sweetness (sweetening potency)” value is reported as 40000 times the sweetness of sugar and the sweetness potency amounted to 40000.
As to `COC(=O)[C@H](Cc1ccccc1)NC(=O)[C@H](CC(=O)O)NCCCc1ccc(O)c(OC)c1` [N-[N-(3-(3-methoxy-4-hydroxyphenylpropyl)-L-α-aspartyl]-L-phenylalanine 1-methyl ester], the sweetening potency in data set [1] is 2500 times that of sucrose.
As for `COC(=O)[C@H](Cc1ccccc1)NC(=O)[C@H](CC(=O)O)NCCC(C)c1ccc(OC)cc1` (mixture of isomers) [Compound 1, N-[N-[(RS)-3-(4-methoxyphenyl)butyl]-L-α-aspartyl]-L-phenylalanine 1-methyl ester], in data set [2], the “Sweetness (sweetening potency)” value is given as 16000 times the sweetness of sugar and the sweetness potency is listed as 16000.
